{"source": "patent US20220151887A1", "about": "(AQUA BANK CO.,LTD., priority 2019, published 2022)", "key": {"[1]": {"experimental": "(§1) During the test period, each subject was required to perform the same skin care method as they do on a daily basis, and not to add or change cosmetics or supplements.\n(§2) In other words, the subjects were divided into two groups, Group A and Group B each having 11 subjects. […] Skin physiological measurements were conducted at the start of the test (zero week), the second and fourth weeks (actually, the subjects also answered questionnaires of the 30 items of the stress checklist and the multifaceted emotion scale for verification of influences on stress, which is a factor of increased skin metabolism, as is omitted here). The measurement items include: the stratum corneum water content; transepidermal water loss; skin viscoelasticity; skin color; facial image analysis by photographing with a digital imaging device (VSIA); and skin blood flow measurement with a non-contact blood flow meter.\n(§3) The subjects executed the inhalation for five minutes each time in the morning and evening and approximately 1 hour after each meal, as in the single time test, with the goal of using five times a day.\nThe skin physiological measurements include: the stratum corneum water content; transepidermal water loss; skin viscoelasticity; skin color; facial image analysis by photographing with a digital imaging device (VSIA); and skin blood flow measurement with a non-contact blood flow meter. […] In the measurements listed below, the cheek site, which was the measurement site, was measured after 15 minutes of acclimation in a constant temperature and humidity chamber (temperature 20±2° C., humidity 50±10%) after the face washing. What was measured in each measurement are described below. […]\n(§4) The p-value was calculated as the probability to determine whether there was a statistically significant difference in the difference average values of the respective groups, and the effect size was calculated as an index representing the magnitude of the difference between the difference average values, so that the two groups are compared with each other."}, "[2]": {"details": "hydrogen continuous use period 2 weeks, cheek, not significant vs non-continuous use period", "experimental": "as §1\nIn other words, the subjects were divided into two groups, Group A and Group B each having 11 subjects. […] Skin physiological measurements were conducted at the start of the test (zero week), the second and fourth weeks (actually, the subjects also answered questionnaires of the 30 items of the stress checklist and the multifaceted emotion scale for verification of influences on stress, which is a factor of increased skin metabolism, as is omitted here). […]\n(§5) The skin physiological measurements include: the stratum corneum water content; transepidermal water loss; skin viscoelasticity; skin color; facial image analysis by photographing with a digital imaging device (VSIA); and skin blood flow measurement with a non-contact blood flow meter. […] In the measurements listed below, the cheek site, which was the measurement site, was measured after 15 minutes of acclimation in a constant temperature and humidity chamber (temperature 20±2° C., humidity 50±10%) after the face washing. What was measured in each measurement are described below.\nThe degree of skin moisturization was determined by measuring the stratum corneum water content. […]"}, "[3]": {"details": "hydrogen continuous use period 2 weeks, difference not significant", "experimental": "as §1, §2, §3, §5\nThe measurements were performed at zero, second and fourth weeks."}, "[4]": {"experimental": "as §1, §2, §3, §5\nSkin images of the measurement site were photographed using VISIA (registered trademark) Evolution (Canfield Imaging Systems), and each skin property was analyzed. The software attached to the device was used to measure the scores of pores, spots, wrinkles, texture, redness, porphyrin, and brown spots. The measurements were performed at zero, second and fourth weeks.\nas §4", "remark": "listed apart in the source"}, "[5]": {"experimental": "(§6) The selection criteria were good health and no smoking. The subjects were allowed to sit in a sitting position for 30 minutes after entering a test room set at a room temperature of 24° C. and a relative humidity of 50% to acclimatize to the experimental environment. After acclimation, physiological measurements were conducted. As the physiological measurements, skin temperature measurements were performed.\n<<Evaluation of Sympathetic Nervous Activity by Measuring Skin Temperature ((Single Time Evaluation Test (FIG. 7))>>\nSince many of the peripheral blood vessel networks are controlled by sympathetic nervous activity, the predominance or inferiority of sympathetic nervous activity can be evaluated by measuring changes in blood flow in the peripheral site or changes in skin temperature in the peripheral site. Therefore, in this verification, the change in skin temperature was used as the index. In other words, changes in the skin temperatures (at the center of the forehead and the first segment pad of the index finger) of the peripheral site were measured by a temperature sensor (manufactured by Gram Corporation). The increased skin temperature in the test product is determined by the following expression:\nwhere H1 is the temperature of the forehead center part of the control, F1 is the temperature of the finger pad center part of the control, H2 is the temperature of the forehead center part of the sample, and F2 is the temperature of the finger pad center part of the sample.\nNote that, in the measurement data analysis in the physiological evaluation, the difference between the control and the blank and the difference between the test product and the blank were compared using the t-test. The significance level of the t-test was set to less than 5%.", "remark": "listed apart in the source"}, "[6]": {"experimental": "as §6\n<<Evaluation of Pupil Contraction Rate in Pupil Reaction to Light by Measuring Pupil Reaction to Light (Single Time Evaluation Test (FIG. 6))>>\nAfter confirming that the pupil dilatation was stable, light stimulation was given for 0.1 seconds. […] The pupil contraction rate (CR), which is the rate of pupil contraction, was determined by the following expression:\nNote that the pupil rapidly dilates after it contracts, and the pupil expanding speed (vd) at that time reflects the state of sympathetic nervous activity. The predominance of sympathetic nervous activity and parasympathetic nervous activity in autonomous nervous activity was determined by analysis of changes in pupil diameter.", "remark": "listed apart in the source"}, "[7]": {"details": "hydrogen continuous use period vs non-continuous use period"}, "[8]": {"details": "hydrogen continuous use period vs nonuse period"}}, "data": [{"smiles": "[HH]", "note": "[hydrogen]", "values": [{"measurement": "instantaneous skin return rate R7 (Ur/Uf), difference average value", "setting": "[1]; hydrogen continuous use period 2 weeks, cheek, p 0.028 vs nonuse period", "value": 0.01}, {"measurement": "R7 (Ur/Uf) effect size", "setting": "[1]; hydrogen continuous use period vs hydrogen nonuse period", "value": 0.74}, {"measurement": "skin return rate R2, difference average value", "setting": "[1]; hydrogen use period 2 weeks, cheek, p 0.076 vs nonuse period", "value": 0.01}, {"measurement": "skin (stratum corneum) water content, difference average value", "setting": "[2]; 5 min about five times a day", "value": "+34.9 μS"}, {"measurement": "transepidermal water loss, difference average value", "setting": "[2]", "value": "+34.9"}, {"measurement": "skin color ΔL* (black and white degree), difference average value", "setting": "[3]; cheek", "value": "+0.30"}, {"measurement": "skin color Δa* (redness degree), difference average value", "setting": "[3]; cheek", "value": "−0.23"}, {"measurement": "skin color Δb* (yellowness degree), difference average value", "setting": "[3]; cheek", "value": "−0.20"}, {"measurement": "skin blood flow changes, difference average value", "setting": "[3]; entire face", "value": "−0.20"}, {"measurement": "number of porphyrins, difference average value", "setting": "[4]; hydrogen continuous use period 2 weeks, difference not significant", "value": "−103.05"}, {"measurement": "number of spots, difference average value", "setting": "[4]; hydrogen continuous use period 2 weeks, p 0.0012 vs nonuse period", "value": "−1.8"}, {"measurement": "redness of the skin color, difference average value", "setting": "[4]; hydrogen continuous use period 2 weeks, p 0.042 vs non-continuous use period", "value": "−5.1"}, {"measurement": "number of brown spots, difference average value", "setting": "[4]; hydrogen continuous use period 2 weeks, p 0.046 vs nonuse period", "value": "−13.7"}, {"measurement": "VISIA pores, measured values", "setting": "[4]; [7]", "value": "no difference"}, {"measurement": "VISIA texture, measured values", "setting": "[4]; [7]", "value": "no difference"}, {"measurement": "VISIA wrinkles, measured values", "setting": "[4]; [7]", "value": "no difference"}, {"measurement": "redness, effect size", "setting": "[4]; [7]", "value": 0.65}, {"measurement": "number of brown spots, effect size", "setting": "[4]; [8]", "value": 0.68}, {"measurement": "number of spots, effect size", "setting": "[4]; [8]", "value": 0.86}, {"measurement": "skin temperature of the index finger, average increase", "setting": "[5]; hydrogen inhalation for 5 minutes vs control, 17 subjects, p<0.001", "value": 3.6, "unit": "°C"}, {"measurement": "skin temperature of the forehead, change", "setting": "[5]; hydrogen inhalation for 5 minutes vs spontaneous breathing control", "value": "hardly found to change"}, {"measurement": "skin temperature of the index finger, increase in individual subjects", "setting": "[5]; hydrogen inhalation for 5 minutes, some subjects", "value": "≥ 6", "unit": "°C"}, {"measurement": "pupil expanding speed (vd)", "setting": "[6]; after hydrogen inhalation (not shown)", "value": "almost unchanged"}, {"measurement": "pupil contraction rate in the pupil reaction to light", "setting": "[6]; after hydrogen inhalation for 1, 3, 5, 7 and 9 minutes (FIG. 6)", "value": "increased significantly in a time-dependent manner"}, {"measurement": "pupil contraction rate CR", "setting": "[6]; after hydrogen inhalation, especially 5 minutes or more, vs before inhalation, p<0.001", "value": "significantly increased"}]}]}
